Results reported in patent US8568696B2, “Grinding method for the manipulation or preservation of calcium phosphate hybrid properties” (Indiana Nanotech LLC, priority 2008, dated 2013).

Key:
[1] = Long-term accelerated aging of NaF(aq)-hybrid suspensions, fluoride availability by fluoride-sensitive electrode; format: physicochemical; conditions: supernatant, triplicate
Procedure: Long-term accelerated aging studies were performed on NaF(aq)-hybrid suspensions. The experiments were carried out in triplicate with 1 mL of each supernatant aspirated, mixed with 1 mL of TISAB II (1:1), and measured with a fluoride-sensitive electrode calibrated to known standards of 100, 950, and 1900 ppm fluoride.
The purpose of this study was to determine if the NaF(aq)-hybrid suspensions maintain sufficient fluoride availability. • 0.24% and 0.32% NaF systems were aged for 122 Days @ 40° C. • 0.05% NaF systems were aged for 119 Days @ 40° C. Results

[2] = In vitro remineralization/demineralization pH cycling study, Vickers surface microhardness of eroded enamel; set-up: species or system Bovine; conditions: change in Vickers microhardness relative to baseline
Procedure: An efficacy study was run in order to evaluate in multiple pH remin/demin cycling models the efficacy of calcium phosphate blends prepared as described above in remineralizing eroded enamel. These studies involved 226 ppm fluoride rinse systems.
The experiment design for the remineralization/demineralization pH cycling study is as follows. Bovine enamel specimens were extracted, ground, and polished. Initial erosion was performed by immersing each enamel specimen in 10 ml of 1% citric acid (pH=3.8) for 30 minutes. After the immersion, four baseline Vickers indentations under a 200 gf load for 15 seconds were made on each specimen and those with a Vickers microhardness number between 200 and 230 VHN were selected for the study. There were three groups in this study (N=10 specimens per group): • Group 1: negative control (DI water) • Group 2: positive control (226 ppm F) • Group 3: 226 ppm F plus 0.004% β-tricalcium phosphate-silica-carbamide
The cycling regimen consisted of five, two-minute/day acid challenges and three, two-minute treatments/day. In between treatments and acid challenges, each specimen was immersed in artificial mineral mix. This process was repeated up to 20 days, after which a post-cycle acid challenge was administered using 1% citric acid (pH=3.8) for 11 minutes. The specimens were evaluated for Vickers surface microhardness after 10 and 20 days as well as after the post-cycle acid challenge. The change in Vickers microhardness relative to baseline values was then used as the performance gauge. Remineralization efficacy was evaluated by comparing post surface Vickers microhardness numbers to baseline surface Vickers values. Means and standard deviations of the means were calculated and the Student Q-test was employed to assess accuracy of the individual specimen measurements within each group. […]
This cycling study evaluated the β-tricalcium phosphate-silica-carbamide blend when combined in a 226 ppm fluoride (NaF(aq)) solution and tested in a pH cycling model. […]

## [F-].[Na+] [0.05% NaF Control]
[1]; aged for 119 Days @ 40° C.
  Mean ppm F ± Std. Dev: 231.7 ± 0.5 ppm F

## [F-].[Na+] [0.24% NaF Control]
[1]; aged for 122 Days @ 40° C.
  Mean ppm F ± Std. Dev: 1080.7 ± 4.8 ppm F

## [F-].[Na+] [0.32% NaF Control]
[1]; aged for 122 Days @ 40° C.
  Mean ppm F ± Std. Dev: 1493.3 ± 3.3 ppm F

## [F-].[Na+] [Group 2]
[2]; 10 days pH cycling, N=10 specimens per group
  Mean ΔVHN ± SEM, after 10 days: 73.2 ± 7.0^2
[2]; 20 days pH cycling, N=10 specimens per group
  Mean ΔVHN ± SEM, after 20 days: 67.6 ± 7.6^2
[2]; after 11-minute post-cycle acid challenge, 1% citric acid pH 3.8
  Mean ΔVHN ± SEM, after post-cycle acid challenge: 81.9 ± 7.1^2
